Laboratory results taken from patent publication US20210340563A1, “DONOR T-CELLS WITH KILL SWITCH” (CSL BEHRING LLC, priority 2018, published 2021).

What was measured:
CEM cells [1] = test: negative selection with MTX or MPA on CEM cells; type: cell-based; conditions: 1 μM of MPA or 0.3 μM of MTX or 10 μM of MPA; for GFP-population of transduced cells under MPA or MTX: CEM experiment
K562 cells [2] = test: negative selection with MTX on K562 cells; type: cell-based, human; conditions: 0.3 μM of MTX, day 0 to day 14
Method: Transduced or transfected K562 cells (such as those from Example 1) were cultured with or without MTX from day 0 to day 14. The medium was refreshed every 3 to 4 days. GFP was analyzed on a flow machine and the InDel % was analyzed by T7E1 assay. […] On the other hand, the population of cells was steady without MTX. FIG. 14B illustrates that the transfected K562 cells were eliminated under treatment with 0.3 μM of MTX at a faster pace as compared with the HPRT-knockdown population.
K562 cells were transduced with either (i) a TL20cw-GFP virus soup at dilution factor of 16, (ii) a TL20cw-Ubc/GFP-7SK/sh734 virus soup at a dilution factor of 16 (one sequentially encoding GFP and a shRNA designed to knockdown HPRT); or (iii) a TL20cw-7SK/sh734-UBC/GFP virus soup at a dilution factor of 16 (one sequentially encoding a shRNA designed to knockdown HPRT and GFP) (see FIG. 16). K562 cells were also transduced by a TL20cw-7SK/sh734-UBC/GFP virus soup at a dilution factor of 1024 (one encoding a nucleic acid encoding a shRNA designed to knockdown HPRT) (also shown in FIG. 16). Three days following transduction, all cells were cultured with medium containing 0.3 μM of MTX 3. […] The relative sh734 expression per vector copy number (VCN) for sh734-GFP-transduced cells and GFP-sh734-transduced cells were measured.

Jurkat cells [3] = test: methotrexate dose response of HPRT knockout Jurkat cells; type: cell-based; conditions: MTX 0.00625 and 0.0125 μM, cultured for 5 days
Method: Jurkat cells (unmodified; WT) were cultured with increasing concentrations of methotrexate (MTX) to determine the MTX dosage window required to kill WT cells (see FIG. 28). A dose range of between 0.00625 and 0.025 μM MTX was selected for subsequent assessment of HPRT Knockout (IDT-4 modified) Jurkat cells.
Dose response of HPRT Knockout (IDT-4 modified) Jurkat cells to MTX was compared to unmodified Jurkat cells (WT) to determine sensitivity to MTX (see FIG. 29).

HPRT protein = test: Western blot for HPRT protein in Jurkat cells; type: cell-based; conditions: modified Jurkat cells; actin loading control
Method: (§1) Jurkat cells were electroporated with a ribonucleoprotein (RNP) complex containing guide RNA (gRNA; GS-4; designated IDT-4) together with the Cas9 and tracrRNA. Cells which were confirmed to be transfected with the gRNA via tracr RNA were purified using fluorescence activated cells sorting (FACS) and subsequently cultured for 72 hours. Increasing concentrations of 6-thioguanine (6-TG) were then administered to the transduced cultured cells to assess resistance. Wild type (unmodified) Jurkat cells were used as a control.
Unmodified (WT) and IDT-4 modified Jurkat cells were also analyzed for HPRT protein using Western blot (see FIG. 25). […] Actin protein detection (bottom panel) was used as a protein loading control.

Jurkat cells [4] = test: 6-TG resistance of HPRT knockout Jurkat cells, luminescence (ATP detection) cell viability; type: cell-based
Method: as §1
Luminescence (ATP detection) was used to assess cell viability.

K562 cells [5] = test: ex vivo 6TG selection of HPRT knockdown/knockout K562 cells; type: cell-based, human
Method: These initial preliminary experiments were performed in K562 cells (human immortalized myelogenous leukemia line) (rsh7-GFP=short hairpin to HPRT/GFP lentiviral vector to knockdown HPRT; nanoRNP-HPRT=CRISPR/Cas9 ribonucleoprotein nanocapsules to knockout HPRT).
K562 cells were transduced with an expression vector including a nucleic acid sequence designed to knockdown HPRT and a nucleic acid sequence encoding the green fluorescent protein (GFP) (MOI=1/2/5); or were transfected with a nanocapsule including CRISPR/Cas9 and a sgRNA to knockout HPRT (100 ng/5×10^4 cells) at day zero (0). 6TG was added into the medium from day 3 through day 14. The medium was refreshed every 3 to 4 days. GFP was analyzed on a flow machine and the InDel % as analyzed with a T7E1 assay.

CEM cells [6] = test: 6TG selection of HPRT knockdown/knockout CEM cells; type: cell-based
Method: CEM cells were transduced with an expression vector including a nucleic acid sequence designed to knockdown HPRT and a nucleic acid sequence encoding the green fluorescent protein or transfected with a nanocapsule including CRISPR/Cas9 and a sgRNA to HPRT at day 0. 6TG was added into the medium from day 3 to day 17. The medium was refreshed every 3 to 4 days. GFP as analyzed on a flow machine and the InDel % is analyzed by a T7E1 assay. FIG. 13A illustrates that the GFP+ population of transduced K562 cells increased from day 3 to day 17 under treatment of 6TG while GFP+ population was almost steady without. […] It should be noted that 6TG selection process occurred faster on HPRT knockout cells rather than HPRT knockdown cells (MOI=1) at the same concentration of 6TG from day 3 to day 17.

[7] = 900 nM of 6TG compared with 300/600 nM of 6TG

CN(Cc1cnc2nc(N)nc(N)c2n1)c1ccc(C(=O)N[C@@H](CCC(=O)O)C(=O)O)cc1 [MTX, methotrexate]
HPRT knockout population of CEM cells under MPA or MTX (CEM cells [1]): eliminated at a faster pace | GFP-population of transduced cells under MPA or MTX (CEM cells [1]): decreased | GFP-population of transduced K562 cells under MTX (K562 cells [2]): decreased | transfected (HPRT knockout) K562 cells under MTX (K562 cells [2]): eliminated

IDT-4: lead HPRT guide RNA, SEQ ID NO: 36, GGTTATGACCTTGATTTATT; used as Cas9 RNP (used with tracrRNA as Cas9 RNP, further chemistry not given here)
sensitivity to MTX compared to wild type Jurkat cells (Jurkat cells [3]): increased sensitivity to MTX | HPRT protein level by Western blot (HPRT protein): undetectable levels of HPRT | cell viability (luminescence) of gRNA-modified Jurkat cells with increasing 6-TG (Jurkat cells [4]; 6-TG tested up to 10 uM): resistance to increasing doses of 6-TG

Nc1nc2nc[nH]c2c(=S)[nH]1 [Vector 6TG, 6-thioguanine]
speed of selection of HPRT knockout K562 cells (K562 cells [5]; [7]): faster selection | HPRT knockout population of K562 cells under treatment with 6TG (InDel %, T7E1 assay) (K562 cells [5]; CRISPR/Cas9 nanocapsule transfected, day 3 to 14): increased | GFP+ population of transduced K562 cells under treatment of 6TG (K562 cells [5]; HPRT knockdown vector with GFP, day 3 to day 14): increased | cell viability (luminescence) of unmodified (wild type) Jurkat cells (Jurkat cells [4]; increasing concentrations of 6-TG): decrease in cell viability | speed of selection of HPRT knockout CEM cells (CEM cells [6]; [7]): faster selection | GFP+ population of transduced cells under treatment of 6TG (CEM cells [6]; CEM experiment, day 3 to day 17): increased | HPRT knockout population of CEM cells under treatment of 6TG (CEM cells [6]; day 3 to 17): increased

COc1c(C)c2c(c(O)c1C/C=C(\C)CCC(=O)O)C(=O)OC2 [MPA, mycophenolic acid]
HPRT knockout population of CEM cells under MPA or MTX (CEM cells [1]): eliminated at a faster pace | GFP-population of transduced cells under MPA or MTX (CEM cells [1]): decreased
